Source: patent US12522583B2, “Benzimidazole derivatives and aza-benzimidazole derivatives as Janus kinase 2 inhibitors and uses thereof” (Dana-Farber Cancer Institute, Inc., priority 2018, dated 2026)

Assays:
Test in all cases: KINOMEscan
Type in all cases: binding
Conditions in all cases: read-out: percent control
TLK1 = TLK1 (Homo sapiens (Human), UniProt Q9UKI8)
Source text: (§1) Example 2. In Vitro Kinase Selectivity Profiling of the Compounds of the Present Disclosure

IKK-epsilon = IKK-epsilon (Homo sapiens (Human), UniProt Q14164)
Source text: as §1

CDKL1 = CDKL1 (Homo sapiens (Human), UniProt Q00532)
Source text: as §1

[1] = biological target: RPS6KA4(Kin.Dom.1-terminal) (Homo sapiens (Human), UniProt O75676)
Source text: as §1

KIT(V559D, V654A) = KIT(V559D, V654A) (Homo sapiens (Human), UniProt P10721, V559D/V654A)
Source text: as §1

NEK5 = NEK5 (Homo sapiens (Human), UniProt Q6P3R8)
NEK5, sequence (Q6P3R8 whole entry): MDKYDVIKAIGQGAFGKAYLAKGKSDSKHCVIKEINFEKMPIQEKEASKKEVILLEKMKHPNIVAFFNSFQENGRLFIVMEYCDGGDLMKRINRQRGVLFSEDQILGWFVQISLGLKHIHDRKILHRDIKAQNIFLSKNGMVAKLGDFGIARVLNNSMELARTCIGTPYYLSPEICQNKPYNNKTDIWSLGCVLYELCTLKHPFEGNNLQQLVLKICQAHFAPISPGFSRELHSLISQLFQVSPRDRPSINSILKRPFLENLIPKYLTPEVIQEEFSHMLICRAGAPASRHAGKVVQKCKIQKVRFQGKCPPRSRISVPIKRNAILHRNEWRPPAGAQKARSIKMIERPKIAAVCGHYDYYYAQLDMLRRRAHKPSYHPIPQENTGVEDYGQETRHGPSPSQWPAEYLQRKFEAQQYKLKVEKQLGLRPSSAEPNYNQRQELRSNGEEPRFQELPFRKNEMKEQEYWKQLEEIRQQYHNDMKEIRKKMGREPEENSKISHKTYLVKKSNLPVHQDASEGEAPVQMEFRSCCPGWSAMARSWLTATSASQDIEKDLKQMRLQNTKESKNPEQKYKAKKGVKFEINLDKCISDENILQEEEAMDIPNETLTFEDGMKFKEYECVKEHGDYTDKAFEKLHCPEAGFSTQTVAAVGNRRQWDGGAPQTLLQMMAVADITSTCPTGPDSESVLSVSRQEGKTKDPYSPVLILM
Source text: as §1

NEK9 = NEK9 (Homo sapiens (Human), UniProt Q8TD19)
NEK9, sequence (Q8TD19 whole entry): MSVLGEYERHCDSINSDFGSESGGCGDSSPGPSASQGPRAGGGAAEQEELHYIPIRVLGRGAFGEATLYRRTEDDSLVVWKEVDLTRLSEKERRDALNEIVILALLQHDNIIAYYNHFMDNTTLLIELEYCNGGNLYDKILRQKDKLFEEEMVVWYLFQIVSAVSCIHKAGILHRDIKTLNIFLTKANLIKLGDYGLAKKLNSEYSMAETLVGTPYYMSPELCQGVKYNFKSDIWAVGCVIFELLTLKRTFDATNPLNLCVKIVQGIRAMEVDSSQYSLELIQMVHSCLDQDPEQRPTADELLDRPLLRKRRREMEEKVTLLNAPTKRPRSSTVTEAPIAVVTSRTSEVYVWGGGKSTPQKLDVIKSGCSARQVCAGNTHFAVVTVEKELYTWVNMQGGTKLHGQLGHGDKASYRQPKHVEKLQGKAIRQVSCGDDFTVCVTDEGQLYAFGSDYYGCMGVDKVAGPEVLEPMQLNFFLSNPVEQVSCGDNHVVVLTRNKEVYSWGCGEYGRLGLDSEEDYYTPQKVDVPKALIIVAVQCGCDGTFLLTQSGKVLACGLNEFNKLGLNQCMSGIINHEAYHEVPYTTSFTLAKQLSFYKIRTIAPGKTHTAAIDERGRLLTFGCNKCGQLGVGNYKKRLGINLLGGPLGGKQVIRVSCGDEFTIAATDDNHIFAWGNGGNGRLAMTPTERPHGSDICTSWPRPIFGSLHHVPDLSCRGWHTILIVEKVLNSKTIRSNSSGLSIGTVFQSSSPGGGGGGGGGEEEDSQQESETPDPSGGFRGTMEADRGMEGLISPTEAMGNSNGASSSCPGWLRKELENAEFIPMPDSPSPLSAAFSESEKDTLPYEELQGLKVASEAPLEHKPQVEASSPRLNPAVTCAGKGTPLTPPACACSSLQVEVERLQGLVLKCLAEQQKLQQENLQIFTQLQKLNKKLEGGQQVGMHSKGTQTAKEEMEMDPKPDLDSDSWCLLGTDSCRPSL
Source text: as §1

[2] = biological target: RPS6KA5(Kin.Dom.2-C-terminal) (Homo sapiens (Human), UniProt O75582)
Source text: as §1

PLK4 = PLK4 (Homo sapiens (Human), UniProt O00444)
Source text: as §1

TYRO3 = TYRO3 (Homo sapiens (Human), UniProt Q06418)
Source text: as §1

BUB 1 = BUB 1 (Homo sapiens (Human), UniProt O43683)
Source text: as §1

TNNI3K = TNNI3K (Homo sapiens (Human), UniProt Q59H18)
Source text: as §1

EPHA5 = EPHA5 (Homo sapiens (Human), UniProt P54756)
Source text: as §1

FGFR2 = FGFR2 (Homo sapiens (Human), UniProt P21802)
Source text: as §1

FRK = FRK (Homo sapiens (Human), UniProt P42685)
FRK, sequence (P42685 whole entry): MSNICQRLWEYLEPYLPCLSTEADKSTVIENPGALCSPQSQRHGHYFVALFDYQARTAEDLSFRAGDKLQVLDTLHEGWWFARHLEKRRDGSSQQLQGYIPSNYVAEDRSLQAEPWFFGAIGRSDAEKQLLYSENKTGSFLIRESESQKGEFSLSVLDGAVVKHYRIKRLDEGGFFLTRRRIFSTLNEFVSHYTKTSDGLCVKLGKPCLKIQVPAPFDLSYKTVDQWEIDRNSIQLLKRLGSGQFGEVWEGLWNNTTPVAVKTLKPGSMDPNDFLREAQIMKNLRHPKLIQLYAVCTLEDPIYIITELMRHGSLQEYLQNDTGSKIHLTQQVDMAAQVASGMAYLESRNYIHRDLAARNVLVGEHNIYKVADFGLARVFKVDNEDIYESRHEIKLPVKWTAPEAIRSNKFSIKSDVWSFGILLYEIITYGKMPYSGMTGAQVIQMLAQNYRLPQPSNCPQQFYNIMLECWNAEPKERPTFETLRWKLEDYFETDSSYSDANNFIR
Source text: as §1

[3] = biological target: EGFR(L747-E749del, A750P) (Homo sapiens (Human), UniProt P00533, A750P/DEL747-749)
Source text: as §1

EIF2AK1 = EIF2AK1 (Homo sapiens (Human), UniProt Q9BQI3)
Source text: as §1

TTK = TTK (Homo sapiens (Human), UniProt P33981)
TTK, sequence (P33981 whole entry): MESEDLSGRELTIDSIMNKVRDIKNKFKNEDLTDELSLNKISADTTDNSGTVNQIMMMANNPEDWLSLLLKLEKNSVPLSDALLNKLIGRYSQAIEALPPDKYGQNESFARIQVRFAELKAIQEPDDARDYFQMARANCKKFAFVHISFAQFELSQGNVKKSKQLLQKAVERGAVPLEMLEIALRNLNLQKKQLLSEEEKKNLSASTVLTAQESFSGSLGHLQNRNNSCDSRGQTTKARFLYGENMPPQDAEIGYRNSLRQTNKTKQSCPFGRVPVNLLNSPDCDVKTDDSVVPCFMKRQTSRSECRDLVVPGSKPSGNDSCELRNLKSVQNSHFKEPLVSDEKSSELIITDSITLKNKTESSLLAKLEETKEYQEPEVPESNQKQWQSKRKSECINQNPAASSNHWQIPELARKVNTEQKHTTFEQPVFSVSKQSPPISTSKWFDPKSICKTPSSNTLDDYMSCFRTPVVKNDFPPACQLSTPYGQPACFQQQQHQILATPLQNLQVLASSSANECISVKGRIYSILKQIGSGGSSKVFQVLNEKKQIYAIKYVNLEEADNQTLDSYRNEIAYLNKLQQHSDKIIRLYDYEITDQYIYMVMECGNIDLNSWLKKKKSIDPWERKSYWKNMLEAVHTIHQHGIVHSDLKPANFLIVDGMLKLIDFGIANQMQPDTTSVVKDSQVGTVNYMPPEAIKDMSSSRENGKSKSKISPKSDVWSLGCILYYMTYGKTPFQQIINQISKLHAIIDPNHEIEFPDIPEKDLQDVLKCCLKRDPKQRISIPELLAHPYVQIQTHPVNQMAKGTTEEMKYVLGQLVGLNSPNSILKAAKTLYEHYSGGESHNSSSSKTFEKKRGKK
Source text: as §1

DRAK2 = DRAK2 (Homo sapiens (Human), UniProt O94768)
Source text: as §1

CSNK2A2 = CSNK2A2 (Homo sapiens (Human), UniProt P19784)
Source text: as §1

INSRR = INSRR (Homo sapiens (Human), UniProt P14616)
Source text: as §1

TRKC = TRKC (Homo sapiens (Human), UniProt Q16288)
Source text: as §1

CTK = CTK (Homo sapiens (Human), UniProt P42679)
Source text: as §1

YSK4 = YSK4 (Homo sapiens (Human), UniProt Q56UN5)
Source text: as §1

HIPK4 = HIPK4 (Homo sapiens (Human), UniProt Q8NE63)
Source text: as §1

ERK8 = ERK8 (Homo sapiens (Human), UniProt Q8TD08)
Source text: as §1

HASPIN = HASPIN (Homo sapiens (Human), UniProt Q8TF76)
Source text: as §1

LRRK2 = LRRK2 (Homo sapiens (Human), UniProt Q5S007)
Source text: as §1

PCTK1 = PCTK1 (Homo sapiens (Human), UniProt Q00536)
PCTK1, sequence (Q00536 whole entry): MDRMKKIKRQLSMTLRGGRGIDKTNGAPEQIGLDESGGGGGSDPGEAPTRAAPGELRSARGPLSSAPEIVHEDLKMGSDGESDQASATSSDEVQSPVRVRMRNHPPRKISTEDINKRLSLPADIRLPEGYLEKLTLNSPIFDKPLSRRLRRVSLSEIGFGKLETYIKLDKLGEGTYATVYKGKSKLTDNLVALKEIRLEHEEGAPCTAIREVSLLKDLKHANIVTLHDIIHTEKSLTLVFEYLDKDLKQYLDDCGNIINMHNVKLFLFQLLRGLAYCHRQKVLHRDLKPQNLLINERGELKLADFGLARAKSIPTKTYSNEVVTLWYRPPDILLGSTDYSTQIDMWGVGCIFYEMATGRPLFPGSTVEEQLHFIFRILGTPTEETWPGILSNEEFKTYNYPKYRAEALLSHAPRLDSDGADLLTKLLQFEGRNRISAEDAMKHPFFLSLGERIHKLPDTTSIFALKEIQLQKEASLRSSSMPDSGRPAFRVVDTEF
Source text: as §1

FLT3(D835Y) = FLT3(D835Y) (Homo sapiens (Human), UniProt P36888, D835Y)
Source text: as §1

KIT(D816V) = KIT(D816V) (Homo sapiens (Human), UniProt P10721, D816V)
Source text: as §1

FLT3(N841I) = FLT3(N841I) (Homo sapiens (Human), UniProt P36888, N841I)
Source text: as §1

CSK = CSK (Homo sapiens (Human), UniProt P41240)
Source text: as §1

MAPKAPK5 = MAPKAPK5 (Homo sapiens (Human), UniProt Q8IW41)
Source text: as §1

FGFR1 = FGFR1 (Homo sapiens (Human), UniProt P11362)
Source text: as §1

DYRK1B = DYRK1B (Homo sapiens (Human), UniProt Q9Y463)
DYRK1B, sequence (Q9Y463 whole entry): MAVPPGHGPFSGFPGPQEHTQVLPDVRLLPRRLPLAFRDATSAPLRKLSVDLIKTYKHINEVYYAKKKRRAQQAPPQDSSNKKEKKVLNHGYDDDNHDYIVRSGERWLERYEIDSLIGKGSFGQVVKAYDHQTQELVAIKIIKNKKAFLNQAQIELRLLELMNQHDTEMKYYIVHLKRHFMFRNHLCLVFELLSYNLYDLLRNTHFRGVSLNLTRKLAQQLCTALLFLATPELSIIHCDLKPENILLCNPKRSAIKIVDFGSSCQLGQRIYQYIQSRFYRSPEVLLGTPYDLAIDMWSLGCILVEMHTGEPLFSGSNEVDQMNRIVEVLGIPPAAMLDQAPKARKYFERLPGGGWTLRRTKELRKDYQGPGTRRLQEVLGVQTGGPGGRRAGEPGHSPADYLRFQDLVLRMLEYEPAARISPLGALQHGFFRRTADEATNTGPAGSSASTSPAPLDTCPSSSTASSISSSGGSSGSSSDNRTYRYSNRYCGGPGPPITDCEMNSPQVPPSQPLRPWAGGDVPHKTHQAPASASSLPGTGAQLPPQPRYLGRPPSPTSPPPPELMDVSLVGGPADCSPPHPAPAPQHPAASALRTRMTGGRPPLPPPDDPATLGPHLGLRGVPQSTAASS
Source text: as §1

BMPR2 = BMPR2 (Homo sapiens (Human), UniProt Q13873)
Source text: as §1

[4] = biological target: ABL1(M351T)-phosphorylated (Homo sapiens (Human), UniProt P00519, M351T)
Source text: as §1

MEK3 = MEK3 (Homo sapiens (Human), UniProt P46734)
Source text: as §1

TLK1, sequence (Q9UKI8 whole entry): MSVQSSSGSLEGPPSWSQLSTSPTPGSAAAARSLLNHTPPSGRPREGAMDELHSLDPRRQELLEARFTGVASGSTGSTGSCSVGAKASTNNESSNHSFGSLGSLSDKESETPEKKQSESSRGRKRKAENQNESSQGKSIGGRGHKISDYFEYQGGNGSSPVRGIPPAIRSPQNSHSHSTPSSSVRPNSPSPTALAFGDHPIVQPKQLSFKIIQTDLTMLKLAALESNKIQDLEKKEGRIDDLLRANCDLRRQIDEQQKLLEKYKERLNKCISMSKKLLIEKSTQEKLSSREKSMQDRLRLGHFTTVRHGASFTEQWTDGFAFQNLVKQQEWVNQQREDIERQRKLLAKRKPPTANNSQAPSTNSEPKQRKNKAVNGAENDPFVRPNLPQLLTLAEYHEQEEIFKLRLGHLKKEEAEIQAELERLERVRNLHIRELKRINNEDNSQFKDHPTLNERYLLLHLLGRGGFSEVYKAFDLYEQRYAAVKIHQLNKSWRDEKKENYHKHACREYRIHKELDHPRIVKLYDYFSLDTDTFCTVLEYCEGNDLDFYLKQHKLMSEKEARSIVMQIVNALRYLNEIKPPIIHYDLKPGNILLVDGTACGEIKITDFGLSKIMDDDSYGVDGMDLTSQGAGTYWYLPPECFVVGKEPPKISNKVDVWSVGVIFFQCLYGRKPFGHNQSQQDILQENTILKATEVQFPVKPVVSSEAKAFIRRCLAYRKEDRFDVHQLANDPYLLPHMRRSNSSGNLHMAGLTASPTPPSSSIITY

SMILES: CCN1CCN(Cc2ccc(Nc3nc4ccc(Oc5ccnc(NC(C)=O)c5)cc4n3C)cc2C(F)(F)F)CC1 [Compound I-2]
- remaining binding at 1 µM (TLK1): 87%
- remaining binding at 1 µM (IKK-epsilon): 91%
- remaining binding at 1 µM (CDKL1): 84%
- remaining binding at 1 µM [1]: 100%
- remaining binding at 1 µM (KIT(V559D, V654A)): 7.4%
- remaining binding at 1 µM (NEK5): 38%
- remaining binding at 1 µM (NEK9): 87%
- remaining binding at 1 µM [2]: 90%
- remaining binding at 1 µM (PLK4): 92%
- remaining binding at 1 µM (TYRO3): 100%
- remaining binding at 1 µM (BUB 1): 100%
- remaining binding at 1 µM (TNNI3K): 23%
- remaining binding at 1 µM (EPHA5): 98%
- remaining binding at 1 µM (FGFR2): 100%
- remaining binding at 1 µM (FRK): 45%
- remaining binding at 1 µM [3]: 66%
- remaining binding at 1 µM (EIF2AK1): 75%
- remaining binding at 1 µM (TTK): 75%
- remaining binding at 1 µM (DRAK2): 100%
- remaining binding at 1 µM (CSNK2A2): 82%
- remaining binding at 1 µM (INSRR): 5.3%
- remaining binding at 1 µM (TRKC): 44%
- remaining binding at 1 µM (CTK): 83%
- remaining binding at 1 µM (YSK4): 51%
- remaining binding at 1 µM (HIPK4): 100%
- remaining binding at 1 µM (ERK8): 79%
- remaining binding at 1 µM (HASPIN): 100%
- remaining binding at 1 µM (LRRK2): 100%
- remaining binding at 1 µM (PCTK1): 84%
- remaining binding at 1 µM (FLT3(D835Y)): 70%
- remaining binding at 1 µM (KIT(D816V)): 56%
- remaining binding at 1 µM (FLT3(N841I)): 11%
- remaining binding at 1 µM (CSK): 63%
- remaining binding at 1 µM (MAPKAPK5): 99%
- remaining binding at 1 µM (FGFR1): 86%
- remaining binding at 1 µM (DYRK1B): 71%
- remaining binding at 1 µM (BMPR2): 100%
- remaining binding at 1 µM [4]: 37%
- remaining binding at 1 µM (MEK3): 57%

SMILES: CCN1CCN(Cc2ccc(Nc3nc4ccc(Oc5ccnc(NC(C)=O)c5)c(C)c4n3C)cc2C(F)(F)F)CC1 [Compound I-6, N-(4-(2-(4-((4-ethylpiperazin-1-yl)methyl)-3-(trifluoromethyl)phenylamino)-1,7-dimethyl-1H-benzo[d]imidazol-6-yloxy)pyridin-2-yl)acetamide]
- remaining binding at 1 µM (TLK1): 93%
- remaining binding at 1 µM (IKK-epsilon): 92%
- remaining binding at 1 µM (CDKL1): 87%
- remaining binding at 1 µM [1]: 93%
- remaining binding at 1 µM (KIT(V559D, V654A)): 19%
- remaining binding at 1 µM (NEK5): 6.7%
- remaining binding at 1 µM (NEK9): 68%
- remaining binding at 1 µM [2]: 100%
- remaining binding at 1 µM (PLK4): 100%
- remaining binding at 1 µM (TYRO3): 100%
- remaining binding at 1 µM (BUB 1): 100%
- remaining binding at 1 µM (TNNI3K): 51%
- remaining binding at 1 µM (EPHA5): 98%
- remaining binding at 1 µM (FGFR2): 82%
- remaining binding at 1 µM (FRK): 11%
- remaining binding at 1 µM [3]: 100%
- remaining binding at 1 µM (EIF2AK1): 29%
- remaining binding at 1 µM (TTK): 96%
- remaining binding at 1 µM (DRAK2): 85%
- remaining binding at 1 µM (CSNK2A2): 100%
- remaining binding at 1 µM (INSRR): 5.8%
- remaining binding at 1 µM (TRKC): 3.4%
- remaining binding at 1 µM (CTK): 90%
- remaining binding at 1 µM (YSK4): 67%
- remaining binding at 1 µM (HIPK4): 100%
- remaining binding at 1 µM (ERK8): 75%
- remaining binding at 1 µM (HASPIN): 93%
- remaining binding at 1 µM (LRRK2): 86%
- remaining binding at 1 µM (PCTK1): 68%
- remaining binding at 1 µM (FLT3(D835Y)): 56%
- remaining binding at 1 µM (KIT(D816V)): 50%
- remaining binding at 1 µM (FLT3(N841I)): 14%
- remaining binding at 1 µM (CSK): 87%
- remaining binding at 1 µM (MAPKAPK5): 83%
- remaining binding at 1 µM (FGFR1): 75%
- remaining binding at 1 µM (DYRK1B): 50%
- remaining binding at 1 µM (BMPR2): 100%
- remaining binding at 1 µM [4]: 27%
- remaining binding at 1 µM (MEK3): 87%
